SMILES strings stand for the structures.

Holding throughout (type): biochemical
The target in one assay is EZH2PRC2 mutant Y641N (Homo sapiens, UniProt Q15910, Y641N). Kind of assay: EZH2PRC2 mutant Y641N nucleosome assay. The conditions noted are these: read-out: EZH2PCR2 Mutant Y641N IC50. The procedure: Nucleosome Assay Protocol:
A. Compound preparation • 1. Prepare 10 mM stock solutions in 100% DMSO from solid material • 2. Serial dilute 10 mM compound stocks either 2 or 3-fold in 100% DMSO to generate compounds for 11 point dose response
B. Reagent preparation • 1. Prepare 1× assay buffer containing 100 mM Tris pH 8.5, 4 mM DTT and 0.01% Tween-20 • 2. Dilute purified HeLA oligonucleosomes and recombinant histone H1 (New England Biolabs) in assay buffer to 1.67×. • 3. Dilute EZH2 4 protein complex (EZH2, EED, SUZ12, RbAp48) to 3.5× in assay buffer • 4. Prepare 10×^3H SAM solution in assay buffer using 0.94 μCi/well of radioactive SAM (Perkin Elmer) and sufficient non-labeled SAM (Sigma) for 1.5 μM final concentration. • 5. Dilute TCA to 20% in DI water
C. Enzyme reaction • 1. Final reaction conditions are 5 nM EZH2 4-protein complex, 1.5 μM SAM, 25 μg/mL oligonucleosomes, 50 nM rH1 in a 50 μl reaction volume. • 2. Add 1 μl of diluted compound to the assay plate (96-well V-bottom polypropylene plates) or 1 μl of DMSO for control wells. • 3. Add 30 μl of nucleosomes to the assay plate • 4. Add 14 μl of EZH2 4 protein complex to the assay plate • 5. Add 5 μl of ^3H SAM to start the reaction. • 6. Stop the reaction after 60 minutes with the addition of 100 μl of 20% TCA • 7. Transfer 150 μl of quenched reaction into a prepared filterplate (Millipore #MSIPN4B10) • 8. Apply vacuum to the filterplate to filter the reaction mix through the membrane. • 9. Wash the filterplate with 8×200 μl of PBS, blot dry and dry in an oven for 30 minutes • 10. Add 50 μl of microscint-20 scintillation fluid (Perkin Elmer) to each well, wait 30 minutes and count on a liquid scintillation counter.
D. Data analysis • 1. IC50 values were determined by fitting the data to a 4-parameter IC50 equation using proprietary curve fitting software.
Wild type (WT) EZH2% Effect at 20 μM and IC50 values (μM) generated in WT EZH2 or EZH2PRC2 mutant Y641N nucleosome assays are provided in Table 3 below. A blank entry in the table indicates the data was not generated in that assay.

In assay [1] the target is WT EZH2 (EZH2 4 protein complex: EZH2, EED, SUZ12, RbAp48) (Homo sapiens, UniProt Q15910). The assay can be described thus: WT EZH2 nucleosome assay. The note with it: compound at 20 μM; nucleosome assay. In short, it runs like this:
(§1)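 Radiometric methyltransferase assay: 5 nM EZH2 four-protein complex, 1.5 μM 3H-SAM, 25 μg/mL HeLa oligonucleosomes, 50 nM recombinant H1 in 100 mM Tris pH 8.5, 4 mM DTT, 0.01% Tween-20. 60 min reaction, TCA quench, filter capture, scintillation counting; IC50 from 11-point 4-parameter fit; % effect at 20 μM.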

For assay [2], the target named is WT EZH2 (EZH2 4 protein complex: EZH2, EED, SUZ12, RbAp48) (Homo sapiens, UniProt O75530+Q09028+Q15022+Q15910). Kind of assay: WT EZH2 nucleosome assay. The conditions noted are these: nucleosome assay, 5 nM EZH2 4-protein complex, 1.5 μM SAM; read-out: WT EZH2 IC50. In short, it runs like this:
as §1

Sequence of EZH2PRC2 mutant Y641N (Q15910 whole entry Y641N): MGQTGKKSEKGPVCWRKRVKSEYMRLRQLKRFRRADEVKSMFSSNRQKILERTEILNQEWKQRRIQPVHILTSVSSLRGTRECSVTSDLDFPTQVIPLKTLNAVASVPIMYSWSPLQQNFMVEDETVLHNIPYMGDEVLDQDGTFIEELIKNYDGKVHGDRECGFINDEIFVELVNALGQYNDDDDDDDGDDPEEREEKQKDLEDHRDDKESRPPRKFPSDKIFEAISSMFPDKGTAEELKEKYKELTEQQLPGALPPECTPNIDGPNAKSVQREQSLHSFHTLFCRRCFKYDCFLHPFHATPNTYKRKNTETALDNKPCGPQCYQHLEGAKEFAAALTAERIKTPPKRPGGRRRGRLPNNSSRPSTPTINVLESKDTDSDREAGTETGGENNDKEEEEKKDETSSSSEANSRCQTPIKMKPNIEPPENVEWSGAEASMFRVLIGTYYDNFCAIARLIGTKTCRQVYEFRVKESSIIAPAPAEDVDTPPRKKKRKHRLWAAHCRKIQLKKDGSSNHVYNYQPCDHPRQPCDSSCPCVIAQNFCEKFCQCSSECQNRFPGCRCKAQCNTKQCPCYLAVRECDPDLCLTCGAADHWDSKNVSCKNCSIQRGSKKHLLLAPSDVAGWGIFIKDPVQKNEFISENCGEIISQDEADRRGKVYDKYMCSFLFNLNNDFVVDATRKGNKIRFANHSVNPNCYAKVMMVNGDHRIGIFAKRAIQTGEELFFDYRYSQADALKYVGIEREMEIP
Sequence of EZH2PRC2 mutant Y641N (O75530 whole entry partner): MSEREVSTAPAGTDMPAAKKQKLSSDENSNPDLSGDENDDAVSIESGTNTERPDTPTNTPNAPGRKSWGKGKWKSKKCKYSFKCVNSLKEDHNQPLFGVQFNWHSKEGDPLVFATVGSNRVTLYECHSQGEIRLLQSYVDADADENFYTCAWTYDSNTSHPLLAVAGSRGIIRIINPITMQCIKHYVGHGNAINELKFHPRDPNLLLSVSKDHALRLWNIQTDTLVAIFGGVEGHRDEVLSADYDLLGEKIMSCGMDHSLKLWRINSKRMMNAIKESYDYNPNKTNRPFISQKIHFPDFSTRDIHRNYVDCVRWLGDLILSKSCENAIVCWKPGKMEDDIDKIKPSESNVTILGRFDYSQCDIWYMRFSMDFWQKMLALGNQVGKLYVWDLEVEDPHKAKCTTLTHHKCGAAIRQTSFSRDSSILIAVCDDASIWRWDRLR
Sequence of EZH2PRC2 mutant Y641N (Q15022 whole entry partner): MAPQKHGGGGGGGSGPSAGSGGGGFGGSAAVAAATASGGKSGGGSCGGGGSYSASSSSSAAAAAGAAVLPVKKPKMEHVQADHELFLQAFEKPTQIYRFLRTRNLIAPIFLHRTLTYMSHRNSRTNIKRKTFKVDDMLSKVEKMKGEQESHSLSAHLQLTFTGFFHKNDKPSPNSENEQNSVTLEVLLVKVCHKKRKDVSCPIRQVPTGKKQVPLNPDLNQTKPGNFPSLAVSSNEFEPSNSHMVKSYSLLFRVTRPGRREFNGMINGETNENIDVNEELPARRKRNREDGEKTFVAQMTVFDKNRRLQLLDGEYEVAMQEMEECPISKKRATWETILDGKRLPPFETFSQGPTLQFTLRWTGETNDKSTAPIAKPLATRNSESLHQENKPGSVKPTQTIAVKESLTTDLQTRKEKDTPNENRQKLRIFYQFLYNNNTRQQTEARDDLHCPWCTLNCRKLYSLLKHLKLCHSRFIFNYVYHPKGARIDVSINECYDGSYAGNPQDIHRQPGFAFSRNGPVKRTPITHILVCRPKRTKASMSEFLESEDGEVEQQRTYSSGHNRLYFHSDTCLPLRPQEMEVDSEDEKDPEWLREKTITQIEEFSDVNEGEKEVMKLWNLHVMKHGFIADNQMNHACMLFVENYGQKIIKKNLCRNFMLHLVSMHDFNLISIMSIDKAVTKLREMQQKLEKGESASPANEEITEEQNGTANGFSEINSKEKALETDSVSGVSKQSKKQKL
Sequence of EZH2PRC2 mutant Y641N (Q09028 whole entry partner): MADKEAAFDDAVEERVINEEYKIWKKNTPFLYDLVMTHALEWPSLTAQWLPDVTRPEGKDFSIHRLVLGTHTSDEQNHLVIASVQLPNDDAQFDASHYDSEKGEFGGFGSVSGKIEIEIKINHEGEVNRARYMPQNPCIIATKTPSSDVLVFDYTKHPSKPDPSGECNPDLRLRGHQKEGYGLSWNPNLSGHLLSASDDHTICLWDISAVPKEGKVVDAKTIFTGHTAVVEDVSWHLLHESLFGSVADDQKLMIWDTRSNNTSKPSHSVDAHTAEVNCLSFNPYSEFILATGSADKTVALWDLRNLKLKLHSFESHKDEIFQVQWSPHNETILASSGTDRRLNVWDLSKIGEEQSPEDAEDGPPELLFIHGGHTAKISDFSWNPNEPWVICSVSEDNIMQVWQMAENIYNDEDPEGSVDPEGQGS
Sequence of WT EZH2 (EZH2 4 protein complex: EZH2, EED, SUZ12, RbAp48) (Homo sapiens, UniProt O75530+Q09028+Q15022+Q15910) (Q15910 whole entry): as the sequence (Q15910 whole entry Y641N) above, with N641Y counted along it
Sequence of WT EZH2 (EZH2 4 protein complex: EZH2, EED, SUZ12, RbAp48) (Homo sapiens, UniProt O75530+Q09028+Q15022+Q15910) (O75530 whole entry partner): as the sequence (O75530 whole entry partner) above
Sequence of WT EZH2 (EZH2 4 protein complex: EZH2, EED, SUZ12, RbAp48) (Homo sapiens, UniProt O75530+Q09028+Q15022+Q15910) (Q15022 whole entry partner): as the sequence (Q15022 whole entry partner) above
Sequence of WT EZH2 (EZH2 4 protein complex: EZH2, EED, SUZ12, RbAp48) (Homo sapiens, UniProt O75530+Q09028+Q15022+Q15910) (Q09028 whole entry partner): as the sequence (Q09028 whole entry partner) above
Sequence of WT EZH2 (EZH2 4 protein complex: EZH2, EED, SUZ12, RbAp48) (Homo sapiens, UniProt Q15910) (Q15910 whole entry): as the sequence (Q15910 whole entry Y641N) above, with N641Y counted along it
Sequence of WT EZH2 (EZH2 4 protein complex: EZH2, EED, SUZ12, RbAp48) (Homo sapiens, UniProt Q15910) (O75530 whole entry partner): as the sequence (O75530 whole entry partner) above
Sequence of WT EZH2 (EZH2 4 protein complex: EZH2, EED, SUZ12, RbAp48) (Homo sapiens, UniProt Q15910) (Q15022 whole entry partner): as the sequence (Q15022 whole entry partner) above
Sequence of WT EZH2 (EZH2 4 protein complex: EZH2, EED, SUZ12, RbAp48) (Homo sapiens, UniProt Q15910) (Q09028 whole entry partner): as the sequence (Q09028 whole entry partner) above

With `Cc1cc(C)c(CNC(=O)c2cccc(OC(C)C)c2C)c(=O)[nH]1` [Example 32, N-((4,6-dimethyl-2-oxo-1,2-dihydropyridin-3-yl)methyl)-3-isopropoxy-2-methylbenzamide], the figures for the concentration for half-maximal inhibition (IC50) (on EZH2PRC2 mutant Y641N; in assay [2]) were 11.2 µM and 0.87 µM, respectively. Also, the “% Effect in WT EZH2 at 20 μM” value in assay [1] stood at 83.654%.

As to `Cc1cc(C)c(CNC(=O)c2cc(-c3cnn(C)c3)cc(OC(C)C)c2Cl)c(=O)[nH]1` [Example 26, 2-chloro-N-[(4,6-dimethyl-2-oxo-1,2-dihydropyridin-3-yl)methyl]-3-isopropoxy-5-(1-methyl-1H-pyrazol-4-yl)benzamide], the “% Effect in WT EZH2 at 20 μM” value in assay [1] is 93.705%. Besides, the IC50 in assay [2] is 0.93 µM.

In the case of `Cc1cc(C)c(CNC(=O)c2cccc(OC(C)C)c2Cl)c(=O)[nH]1` [Example 46, 2-chloro-N-[(4,6-dimethyl-2-oxo-1,2-dihydropyridin-3-yl)methyl]-3-isopropoxy-benzamide], the “% Effect in WT EZH2 at 20 μM” value in assay [1] is 93.582%. Moreover, in assay [2], the IC50 is 1.63 µM.

Regarding `COc1cccc(C(=O)NCc2c(C)cc(C)[nH]c2=O)c1C#N` [Example 135, 2-cyano-N-[(4,6-dimethyl-2-oxo-1,2-dihydropyridin-3-yl)methyl]-3-methoxybenz-amide], the IC50 was greater than 200 µM on EZH2PRC2 mutant Y641N and 141 µM in assay [2]. Further, in assay [1], the “% Effect in WT EZH2 at 20 μM” value turned out to be 62.306%.

Turning to `COc1cccc(C(=O)NCc2c(C)cc(C)[nH]c2=O)c1F` [Example 137, N-[(4,6-dimethyl-2-oxo-1,2-dihydropyridin-3-yl)methyl]-2-fluoro-3-methoxybenz-amide], the “% Effect in WT EZH2 at 20 μM” value in assay [1] is 20.924%. In addition, the concentration for half-maximal inhibition (IC50) in assay [2] worked out at 167 µM.

Regarding `COc1cc(OC)c(Cl)c(C(=O)NCc2c(C)cc(C)[nH]c2=O)c1Cl` [Example 126, 2,6-dichloro-N-[(4,6-dimethyl-2-oxo-1,2-dihydropyridin-3-yl)methyl]-3,5-dimethoxybenz-amide], the “% Effect in WT EZH2 at 20 μM” value in assay [1] was found to be 38.121%. In addition, in assay [2], the IC50 was determined as 52 µM.

As for `COc1ccc(OC)c(C(=O)NCc2c(C)cc(C)[nH]c2=O)c1Cl` [Example 119, 2-chloro-N-[(4,6-dimethyl-2-oxo-1,2-dihydropyridin-3-yl)methyl]-3,6-dimethoxy-benzamide], the “% Effect in WT EZH2 at 20 μM” value in assay [1] turned out to be 44.087%. In addition, the half-maximal inhibitory concentration (IC50) in assay [2] is 37.4 µM.

As to `COc1c(OC(C)C)cccc1C(=O)NCc1c(C)cc(C)[nH]c1=O` [Example 113, N-[(4,6-dimethyl-2-oxo-1,2-dihydropyridin-3-yl)methyl]-3-isopropoxy-2-methoxy-benzamide], in assay [1], the “% Effect in WT EZH2 at 20 μM” value was 43.834%. In addition, in assay [2], the half-inhibitory concentration (IC50) came out at 27.1 µM.

Regarding `Cc1cc(C)c(CNC(=O)c2ncnc(OC(C)C)c2Cl)c(=O)[nH]1` [Example 85], the “% Effect in WT EZH2 at 20 μM” value in assay [1] amounted to 69.248%. Also, in assay [2], the IC50 was determined as 9.12 µM.

For the compound `Cc1cc(-c2cc(Cl)cc(C(=O)NCc3c(C)cc(C)[nH]c3=O)c2C)n(C)n1` [Example 77, 5-chloro-N-[(4,6-dimethyl-2-oxo-1,2-dihydropyridin-3-yl)methyl]-3-(1,3-dimethyl-1H-pyrazol-5-yl)-2-methylbenz-amide], in assay [1], the “% Effect in WT EZH2 at 20 μM” value was found to be 69.743%. Besides, the IC50 in assay [2] was 7.03 µM.

As for `COc1cccc(C(=O)NCc2c(C)cc(C)[nH]c2=O)c1Br` [Example 66, 2-bromo-N-[(4,6-dimethyl-2-oxo-1,2-dihydropyridin-3-yl)methyl]-3-methoxybenza-mide], the “% Effect in WT EZH2 at 20 μM” value in assay [1] stood at 76.288%. The IC50 in assay [2] worked out at 4.88 µM.

With `Cc1cc(C)c(CNC(=O)c2ccnc(OC(C)C)c2Cl)c(=O)[nH]1` [Example 65, 3-chloro-N-[(4,6-dimethyl-2-oxo-1,2-dihydropyridin-3-yl)methyl]-2-isopropoxyiso-nicotinamide], the “% Effect in WT EZH2 at 20 μM” value in assay [1] was 71.459%. Besides, in assay [2], the IC50 was 4.51 µM.

As for `Cc1cc(C)c(CNC(=O)c2cc(Cl)cc(-c3ccnn3C)c2C)c(=O)[nH]1` [Example 5, 5-chloro-N-[(4,6-dimethyl-2-oxo-1,2-dihydropyridin-3-yl)methyl]-2-methyl-3-(1-methyl-1H-pyrazol-5-yl)benzamide], the “% Effect in WT EZH2 at 20 μM” value in assay [1] amounted to 94.88%. For the same compound, the IC50 in assay [2] is 0.45 µM.

Turning to `COc1cccc(C(=O)NCc2c(C)cc(C)[nH]c2=O)c1Cl` [Example 79, 2-chloro-N-[(4,6-dimethyl-2-oxo-1,2-dihydropyridin-3-yl)methyl]-3-methoxybenza-mide], the results for the IC50 (on EZH2PRC2 mutant Y641N; in assay [2]) were 43.1 µM and 7.52 µM, respectively. The “% Effect in WT EZH2 at 20 μM” value in assay [1] was determined as 71.325%.

As for `Cc1cc(C)c(CNC(=O)c2ccnc(OC(C)C)c2F)c(=O)[nH]1` [Example 138, N-[(4,6-dimethyl-2-oxo-1,2-dihydropyridin-3-yl)methyl]-3-fluoro-2-isopropoxyiso-nicotinamide], the “% Effect in WT EZH2 at 20 μM” value in assay [1] turned out to be 44.736%. Moreover, the IC50 in assay [2] was 172 µM.

As to `Cc1cc(C)c(CNC(=O)c2cc(-c3cnn(C)c3)nc(OC(C)C)c2Cl)c(=O)[nH]1` [Example 33, 3-chloro-N-[(4,6-dimethyl-2-oxo-1,2-dihydropyridin-3-yl)methyl]-2-isopropoxy-6-(1-methyl-1H-pyrazol-4-yl)isonicotinamide], the “% Effect in WT EZH2 at 20 μM” value in assay [1] is 92.965%. The IC50 in assay [2] was 0.78 µM.

As for `Cc1cc(C)c(CNC(=O)c2c(F)ccc(OC(C)C)c2Cl)c(=O)[nH]1` [Example 86, 2-chloro-N-[(4,6-dimethyl-2-oxo-1,2-dihydropyridin-3-yl)methyl]-6-fluoro-3-isopropoxy-benzamide], the “% Effect in WT EZH2 at 20 μM” value in assay [1] is on record as 64.416%. The 50% inhibitory concentration (IC50) in assay [2] stood at 9.38 µM.

For `CCCc1c(OC)cccc1C(=O)NCc1c(C)cc(C)[nH]c1=O` [Example 128, N-[(4,6-dimethyl-2-oxo-1,2-dihydropyridin-3-yl)methyl]-3-methoxy-2-propylbenzamide], in assay [1], the “% Effect in WT EZH2 at 20 μM” value came out at 38.993%. Moreover, the IC50 in assay [2] turned out to be 54.3 µM.

On to `COc1ccc(C(=O)NCc2c(C)cc(C)[nH]c2=O)c(Cl)c1OC` [Example 127, 2-chloro-N-[(4,6-dimethyl-2-oxo-1,2-dihydropyridin-3-yl)methyl]-3,4-dimethoxy-benzamide], for which the “% Effect in WT EZH2 at 20 μM” value in assay [1] turned out to be 35.052%. Moreover, the half-maximal inhibitory concentration (IC50) in assay [2] was found to be 53.3 µM.

Turning to `Cc1cc(C)c(CNC(=O)c2c(Cl)ccc(OCCN3CCCC3)c2Cl)c(=O)[nH]1` [Example 129, 2,6-dichloro-N-[(4,6-dimethyl-2-oxo-1,2-dihydropyridin-3-yl)methyl]-3-(2-pyrrolidin-1-ylethoxy)benza-mide], in assay [1], the “% Effect in WT EZH2 at 20 μM” value was 32.145%. The IC50 in assay [2] was determined as 54.3 µM.

As to `Cc1cc(C)c(CNC(=O)c2nccc(OC(C)C)c2C)c(=O)[nH]1` [Example 82, N-[(4,6-dimethyl-2-oxo-1,2-dihydropyridin-3-yl)methyl]-4-isopropoxy-3-methylpyridine-2-carboxamide], the “% Effect in WT EZH2 at 20 μM” value in assay [1] is listed as 69.830%. In assay [2], the IC50 amounted to 7.79 µM.

As a reminder, the IC50 is the midpoint of a concentration-inhibition curve.

Values taken from US20170152239A1, “BENZAMIDE AND HETEROBENZAMIDE COMPOUNDS” (PFIZER INC., priority 2012, published 2017).
